The values that follow come from US11407783B2, “Triptolide derivative and preparation method therefor and use thereof” (priority 2018, dated 2022).

Like-named read-outs stand apart in the source and are kept apart here.

For data set [1], the system named is AsPC-1 (human pancreatic cancer cell). Description: In vitro antitumor activity, CellTiter-Glo cell viability, 48 h. The format is cell-based. The following applies: read-out: Relative IC50 (μM) AsPC-1. Here is the method: (§1) Tumor cells included AsPC-1 (human pancreatic cancer cell), PC-3 (human prostate cancer cell), and SK-OV-3 (human ovarian cancer cell).
(§2) Triptolide was used as a positive control; the working concentrations of the test drug were 1 μM, 0.33 μM, 0.11 μM, […], 0.012 μM, 0.004 μM, 1.4 nM, and 0.46 nM. After the tumor cells were revived, they were resuspended in the corresponding complete medium, placed in 5% CO2, and cultured at 37° C. The tumor cells at the logarithmic growth stage were suspended in the corresponding complete medium to adjust the cell concentration. 90 μL of cell suspension was added into each well. The cells were incubated at 37° C. in 5% CO2 overnight. Each concentration of the test drug was added and the cells were further cultured for 48 hours. Finally. Promega CellTiter-Glo Luminescent Cell Viability Assay Kit was used for detection.
(In general: In ATP-based viability assays light output follows the ATP content of the culture.)

For data set [2], the system named is PC-3 (human prostate cancer cell). Described as above. The class given is cell-based. To be noted: read-out: Relative IC50 (μM) PC-3. Here is the method: as §1, §2
Data set [3] has as its system SK-OV-3 (human ovarian cancer cell). Described as above. To be noted: read-out: Relative IC50 (μM) SK-OV-3. The format is cell-based. Here is the method:
as §1, §2

Data set [4] has as its system mouse B lymphocytes induced by LPS. Description: In vitro immunosuppressive activity, spleen lymphocyte proliferation (3H-thymidine), LPS-induced. The format is cell-based, BALB/c mice. The following applies: read-out: IC50 (μM) mouse B lymphocytes induced by LPS. The method, then: (§3) Preparation of Mouse Spleen Lymphocyte
(§4) BALB/c mice were sacrificed by spinal dislocation, and their spleen was aseptically taken out. A single cell suspension was prepared and adjusted to the required concentration.
(§5) A suspension of 4×10^6 cells/ml spleen lymphocytes was routinely prepared and 100 μL of cells was added into each well of a 96-well plate. 50 μL test sample in different concentrations was added and ConA (final concentration 5 μg/mL) was added to induce T lymphocyte activation and proliferation, or LPS (final concentration 10 μg/mL) (50 μL) was added to induce B lymphocyte activation and proliferation. The corresponding positive control and non-stimulating background control were set. The cells were cultured in 37° C., 5% CO2 incubator for 48 h. 0.25 μCi ^3H-thymidine was introduced and the cultivation was completed after 8 h. At the end of the cultivation, the culture plate was frozen at −20° C. in a freezer until measurement. The cells were collected on a glass fiber membrane with a cell harvester and then scintillation solution was added. The amount of ^3H-thymine nucleotides incorporated into the cells' DNA was read on a Beta counter. The cell proliferation was represented by the cpm value.

The subject of data set [5] is mouse T lymphocytes induced by ConA. The experiment in a line: In vitro immunosuppressive activity, spleen lymphocyte proliferation (3H-thymidine), ConA-induced. The class given is cell-based, BALB/c mice. To be noted: read-out: IC50 (μM) mouse T lymphocytes induced by ConA. Here is the method:
as §3, §4, §5

Data set [6] can be described thus: Body weight, mortality and toxicity in AsPC-1 tumor-bearing nude mice. To be noted: emulsions. The format is in vivo, male nude mice. Here is the method: Human pancreatic cancer cell AsPC-1 was subcutaneously inoculated on the right abdominal side of male nude mice. Tumor-bearing mice were randomly divided into 5 groups: negative control group (Control, n=8, blank emulsion, i.p./i.v., qd); Triptolide group (Triptolide, n=8, 0.25 mg/kg, i.v., qd); positive control group (Gemcitabine, n=8, 50 mg/kg, i.p., tiw); CK21S-005 emulsion group (CK21S-005 emulsion, n=8, 5 mg/kg, i.p./i.v., qd); and CK21S-005 emulsion group (CK21S-005 emulsion, n=8, 2.5 mg/kg, i.p./i.v., qd). Mice were administered in groups until the end of the experiment. The changes in tumor size and tumor-bearing mouse weight over time were monitored during the 2-week administration period, and tumors were weighed at the end of the experiment to comprehensively evaluate the inhibitory effect of the drug CK21S-005 on tumor growth.
The preparation method of the emulsion was as follows. A prescribed amount of injection oil was weighed and heated to 70-90° C. A prescribed amount of raw material was weighed, dispersed in the oil phase and completely dissolved under shear-stirring to form an oil phase. A prescribed amount of injection water was weighed and heated to 70° C. A prescribed amount of phospholipid, co-emulsifier, glycerin, etc. were added and dispersed under shear to form an aqueous phase. […]

The mark [7] stands for this setting: ASPC1, AsPC-1, 48 hours, CellTiter-Glo.
The mark [8] stands for this setting: SK-OV-3, 48 hours, CellTiter-Glo.
The mark [9] stands for this setting: LPS 10 μg/mL, 48 h, 3H-thymidine.
Setting [10] is: ConA 5 μg/mL, 48 h, 3H-thymidine.

As for `CC(C)[C@]12O[C@H]1[C@@H]1O[C@]13[C@]1(O[C@H]1C[C@H]1C4=C(CC[C@@]13C)C(=O)O/C4=C(/OC(=O)c1ccco1)c1ccccc1)[C@@H]2OC(=O)OC(C)(C)C` [CK21S-001-b], the half-maximal inhibitory concentration (IC50) in data set [1] (ASPC1, 48 h) was found to be 0.03 µM; in data set [2] (48 h), 0.029 µM; in data set [3] (SK-OV-3, 48 h), 0.048 µM; in data set [4], 0.01 µM; in data set [5] it was 0.011 µM.

Take `CC(C)[C@]12O[C@H]1[C@@H]1O[C@]13[C@]1(O[C@H]1C[C@H]1C4=C(CC[C@@]13C)C(=O)O/C4=C(/OC(=O)c1ccco1)c1ccccc1)[C@@H]2O` [CK21S-001]: the concentration for half-maximal inhibition (IC50) came to 0.028 µM in data set [1] (setting [7]); 0.022 µM in data set [2] (PC-3, 48 hours, CellTiter-Glo); 0.042 µM in data set [3] (setting [8]); 0.006 µM in data set [4] (setting [9]); 0.008 µM in data set [5] (setting [10]).

With `COc1ccc(C(=O)O/C(=C2/OC(=O)C3=C2[C@@H]2C[C@@H]4O[C@@]45[C@H](OC(=O)OC(C)(C)C)[C@@]4(C(C)C)O[C@H]4[C@@H]4O[C@@]45[C@@]2(C)CC3)c2ccc(OC)cc2)cc1` [CK21S-002-b], the IC50 in data set [1] (ASPC1, 48 h) is 0.042 µM; in data set [2] (48 h) it was 0.042 µM; in data set [3] (SK-OV-3, 48 h) it was 0.057 µM; in data set [4], 0.01 µM; in data set [5], 0.012 µM.

For `COc1ccc(C(=O)O/C(=C2/OC(=O)C3=C2[C@@H]2C[C@@H]4O[C@@]45[C@H](O)[C@@]4(C(C)C)O[C@H]4[C@@H]4O[C@@]45[C@@]2(C)CC3)c2ccc(OC)cc2)cc1` [CK21S-002], the IC50 in data set [1] (setting [7]) was 0.071 µM; in data set [2] (PC-3, 48 hours, CellTiter-Glo), 0.056 µM; in data set [3] (setting [8]), 0.07 µM; in data set [4] (setting [9]), 0.02 µM; in data set [5] (setting [10]), 0.021 µM.

As for `CC(C)[C@]12O[C@H]1[C@@H]1O[C@]13[C@]1(O[C@H]1C[C@H]1C4=C(CC[C@@]13C)C(=O)O/C4=C(/OC(=O)c1ccc(C(F)(F)F)cc1)c1ccc(C(F)(F)F)cc1)[C@@H]2OC(=O)OC(C)(C)C` [CK21S-003-b], the IC50 in data set [1] (ASPC1, 48 h) turned out to be 0.02 µM; in data set [2] (48 h), 0.021 µM; in data set [3] (SK-OV-3, 48 h) it was 0.029 µM; in data set [4] it was 0.005 µM; in data set [5] it was 0.006 µM.

Consider `CC(C)[C@]12O[C@H]1[C@@H]1O[C@]13[C@]1(O[C@H]1C[C@H]1C4=C(CC[C@@]13C)C(=O)O/C4=C(/OC(=O)c1ccc(C(F)(F)F)cc1)c1ccc(C(F)(F)F)cc1)[C@@H]2O` [CK21S-003], for which the half-maximal inhibitory concentration (IC50) in data set [1] (setting [7]) stood at 0.014 µM; in data set [2] (PC-3, 48 hours, CellTiter-Glo), 0.018 µM; in data set [3] (setting [8]), 0.028 µM; in data set [4] (setting [9]), 0.004 µM; in data set [5] (setting [10]), 0.006 µM.

With `CC(C)[C@]12O[C@H]1[C@@H]1O[C@]13[C@]1(O[C@H]1C[C@H]1C4=C(CC[C@@]13C)C(=O)O/C4=C(/OC(=O)c1ccco1)c1ccco1)[C@@H]2OC(=O)OC(C)(C)C` [CK21S-004-b], the IC50 is 0.096 µM in data set [1] (ASPC1, 48 h); 0.045 µM in data set [2] (48 h); 0.129 µM in data set [3] (SK-OV-3, 48 h); 0.025 µM in data set [4]; 0.03 µM in data set [5].

`CC(C)[C@]12O[C@H]1[C@@H]1O[C@]13[C@]1(O[C@H]1C[C@H]1C4=C(CC[C@@]13C)C(=O)O/C4=C(/OC(=O)c1ccco1)c1ccco1)[C@@H]2O` [CK21S-004]: the IC50 was found to be 0.038 µM in data set [1] (setting [7]); 0.023 µM in data set [2] (PC-3, 48 hours, CellTiter-Glo); 0.118 µM in data set [3] (setting [8]); 0.009 µM in data set [4] (setting [9]); 0.012 µM in data set [5] (setting [10]).

As for `CC(C)[C@]12O[C@H]1[C@@H]1O[C@]13[C@]1(O[C@H]1C[C@H]1C4=C(CC[C@@]13C)C(=O)O/C4=C(/OC(=O)c1ccccc1)c1ccccc1)[C@@H]2OC(=O)OC(C)(C)C` [CK21S-005-b], the IC50 is 0.042 µM in data set [1] (setting [7]); 0.035 µM in data set [2] (PC-3, 48 hours, CellTiter-Glo); 0.04 µM in data set [3] (setting [8]); 0.009 µM in data set [4] (setting [9]); 0.011 µM in data set [5] (setting [10]).

Take `CC(C)[C@]12O[C@H]1[C@@H]1O[C@]13[C@]1(O[C@H]1C[C@H]1C4=C(CC[C@@]13C)C(=O)O/C4=C(/OC(=O)c1ccccc1)c1ccccc1)[C@@H]2O` [CK21S-005]: the IC50 worked out at 0.04 µM in data set [1] (ASPC1, 48 h); 0.03 µM in data set [2] (48 h); 0.041 µM in data set [3] (SK-OV-3, 48 h); 0.01 µM in data set [4]; 0.012 µM in data set [5]. The “Safety compared with triptolide” value in data set [6] is recorded as “better than that of triptolide”.

With `CC(C)[C@]12O[C@H]1[C@@H]1O[C@]13[C@]1(O[C@H]1C[C@H]1C4=C(CC[C@@]13C)C(=O)O/C4=C(/OC(=O)C1CCCCC1)c1ccccc1)[C@@H]2OC(=O)OC(C)(C)C` [CK21S-006-b], the IC50 in data set [1] (ASPC1, 48 h) was 0.036 µM; in data set [2] (48 h), 0.034 µM; in data set [3] (SK-OV-3, 48 h) it was 0.045 µM; in data set [4], 0.015 µM; in data set [5], 0.016 µM.

For the compound `CC(C)[C@]12O[C@H]1[C@@H]1O[C@]13[C@]1(O[C@H]1C[C@H]1C4=C(CC[C@@]13C)C(=O)O/C4=C(/OC(=O)C1CCCCC1)c1ccccc1)[C@@H]2O` [CK21S-006], the IC50 in data set [1] (setting [7]) was 0.035 µM; in data set [2] (PC-3, 48 hours, CellTiter-Glo), 0.031 µM; in data set [3] (setting [8]), 0.041 µM; in data set [4] (setting [9]), 0.008 µM; in data set [5] (setting [10]), 0.01 µM.

As for `CC(C)[C@]12O[C@H]1[C@@H]1O[C@@]13[C@@]1(C)CCC4=C(/C(=C(\OC(=O)c5ccccc5)c5ccccc5)OC4=O)[C@@H]1C[C@@H]1O[C@@]13C2=O` [CK21S-007], the IC50 worked out at 0.049 µM in data set [1] (setting [7]); 0.043 µM in data set [2] (PC-3, 48 hours, CellTiter-Glo); 0.05 µM in data set [3] (setting [8]); 0.017 µM in data set [4] (setting [9]); 0.015 µM in data set [5] (setting [10]).

Turning to `CC(C)[C@]12O[C@H]1[C@@H]1O[C@@]13[C@@]1(C)CCC4=C(/C(=C(\OC(=O)c5ccccc5)c5ccccc5)OC4=O)[C@@H]1C[C@@H]1O[C@@]13C2F` (stereo partly drawn) [CK21S-008], the IC50 is 0.035 µM in data set [1] (setting [7]); 0.03 µM in data set [2] (PC-3, 48 hours, CellTiter-Glo); 0.038 µM in data set [3] (setting [8]); 0.009 µM in data set [4] (setting [9]); 0.01 µM in data set [5] (setting [10]).

On to `CC(C)[C@]12O[C@H]1[C@@H]1O[C@]13[C@]1(O[C@H]1C[C@H]1C4=C(CC[C@@]13C)C(=O)O/C4=C(/OC(=O)c1ccccc1)c1ccccc1)[C@@H]2OCOP(=O)(O)O` [CK21S-009], for which the IC50 was 0.03 µM in data set [1] (setting [7]); 0.027 µM in data set [2] (PC-3, 48 hours, CellTiter-Glo); 0.032 µM in data set [3] (setting [8]); 0.008 µM in data set [4] (setting [9]); 0.008 µM in data set [5] (setting [10]).

Consider `CC(C)[C@]12O[C@H]1[C@@H]1O[C@]13[C@]1(O[C@H]1C[C@H]1C4=C(CC[C@@]13C)C(=O)OC4)[C@@H]2O` [Triptolide, triptolide], for which the IC50 in data set [1] (setting [7]) came out at 0.014 µM; in data set [2] (PC-3, 48 hours, CellTiter-Glo) it was 0.014 µM; in data set [3] (setting [8]) it was 0.016 µM; in data set [4] (setting [9]), 0.004 µM; in data set [5] (setting [10]), 0.005 µM.

For orientation: IC50 means the concentration needed to halve the response being measured.
